Experimental data from ChEMBL document CHEMBL3507680, “University of Dundee, Gates Library screen for HepG2 cell viability”.

Assay: Human HepG2 cell viability assay in 384 well format
Assay type: toxicity, cell-based
Set-up: dose 125 nL, time 70.5 hour; cytotoxicity at 70.5 h: concentration not given beside the values
Conditions: HepG2 cells, read-out: Inhibition

SMILES	cytotoxicity at 70.5 h [%]
FC(F)(F)c1ccnc(N2CCC(c3nccn3CC3CC3)CC2)n1	-4.46
CCn1nc(C)c2nc(C(C)C)nc(NCCCn3cccn3)c21	-4.58
COc1nc2c(cc1C(=O)NCc1nc(CSC)no1)CCC2	-5.89
CSCc1noc(Cn2ccc3ccccc3c2=O)n1	-10.8
Cn1cc(CN2CCC3(CC2)CCN(Cc2ccccn2)CC3)cn1	12
Cc1cc(C(=O)NCCc2nc3c(s2)CCCC3)n(C)n1	-3.4
CC(=O)N1CC(=O)N(c2ccsc2)CC12CCN(Cc1ccccn1)C2 (configuration not stated)	-6.8
CCSc1ccc(C(=O)N2CCC3(CCC(=O)N(C)C3)CC2)s1	-9.54
COc1ccc(CS(=O)(=O)CC(=O)NCC2CC2)cc1F	-3.56
COc1ccc(OCc2cc(C(=O)N3CC=CC3)n[nH]2)c(Cl)c1	-3
Cc1ccc(CN2CCc3ncnc(-c4ccoc4)c3CC2)o1	2.47
Cc1cccc(N(C)S(=O)(=O)c2cc(C(=O)O)cs2)c1C	-5.76
CC(=O)NC1CCN(c2ccnc(C3CCNCC3)c2)CC1	-5.48
CC(=O)N1CC(c2ncn(C(C)C)n2)c2cc(C(=O)NC(C)C)ccc21 (configuration not stated)	-4.9
CNC(=O)[C@H]1CC[C@@H]2[C@@H](CCN2c2ncccn2)O1	3.25
Cc1noc([C@@H]2CCCN2C(=O)C2CCN(CC(N)=O)CC2)n1	-5.63
O=S(=O)(Nc1ccc2c(c1)OCCO2)N1CCCCC1	-0.954
O=S1(=O)COCCN1Cc1ccc(F)cc1Cl	-9.29
CC(CC(F)(F)F)NCc1ccccc1-n1ccnc1 (configuration not stated)	-10.9
CC(=O)N1CCN([C@@H]2CN(C(=O)Cc3ccccc3C)C[C@H]2O)CC1	-2.44
OC(CN1CCN(Cc2nc(C3CC3)no2)CC1)c1ccccc1 (configuration not stated)	2
O=C(C1CC1)N1Cc2[nH]nc(COCc3cccnc3)c2C1	-0.809
OC1(CNCc2noc(Cc3ccccc3)n2)CCCNC1 (configuration not stated)	0.455

SMILES	cytotoxicity at 70.5 h [%]
CS(=O)(=O)N1CCCC(c2cncc(Nc3ccccn3)n2)C1 (configuration not stated)	-7.64
Cc1ccc2c(c1)C(NC(=O)N(C)C)CC21CCN(C)CC1 (configuration not stated)	-3.53
COCC(=O)NCCCn1nc2ccccn2c1=O	-15.5
c1cnn(CC2CCCN2Cc2noc(C3CC3)n2)c1 (configuration not stated)	-3.73
CS(=O)(=O)N1CCC(C(=O)N2CCOc3ccccc32)CC1	-5.71
Cc1ccc(CN2C[C@@H]3CCCO[C@@H]3[C@H](N(C)Cc3ccco3)C2)s1	-11
NCCN1C(=O)CC[C@H]2CN(Cc3ccc4occc4c3)CC[C@H]21	-8.13
O=C(c1cccnc1-n1cccn1)N1CCN(CC2CC2)CC1	-11
CCOCCn1c(=O)n(Cc2ccc(F)cc2)c2ncc(C(=O)O)cc21	-4.53
Cc1[nH]c2ccccc2c1CCNC(=O)N1CCC2(C1)OCCO2	-17.8
NC(=O)C1CCN(C(=O)CCn2ccc3cc(Br)ccc32)CC1	-1.61
CC(Cn1cncn1)NC(=O)NCC(C)(C)c1ccc(F)cc1 (configuration not stated)	1.47
Cn1cccc1CN1CCC2(CCCN(C(=O)Cc3cccnc3)C2)C1 (configuration not stated)	24.8
C[C@@H]1CN(C(=O)c2cccc(F)c2)C[C@]12CCN(c1ccsc1)C2=O	-16.2
Cc1cc(C2CCCN(CC(=O)N3CCc4ccccc43)C2)n[nH]1 (configuration not stated)	-6.5
O=C(NC1CCOCC1)c1cccc(C2CCCNC2)c1 (configuration not stated)	-10.4
COC[C@@]12CCC[C@@H]1CN(C(=O)Cc1ccco1)C2	-5.39
CNC(=O)CN1CCOC(c2ccccc2C(F)(F)F)C1 (configuration not stated)	7.85
O=C(c1cscn1)N1CCC(Cc2cnc3[nH]ccc3c2)C1 (configuration not stated)	-1.17
N#CC1(NC(=O)COC(=O)Cc2cc(Cl)c3c(c2)OCCO3)CCCC1	16.4
NS(=O)(=O)c1cnn(-c2ccc(NC(=O)CC3CCCC3)cn2)c1	-5.14
Cc1nn(CC(=O)NCCc2ccncc2)c(=O)n1Cc1ccccc1	1.25
O=C(c1ccc(C2CCCN2)s1)N1CCN2CCC1CC2 (configuration not stated)	-5.88

SMILES	cytotoxicity at 70.5 h [%]
CCc1cnc(N)nc1NCCCn1cc(Cl)cn1	-5.81
Cc1ccoc1C(=O)NCCS(=O)(=O)N1CCSCC1	5.89
COc1ccc(NC(=O)N(C)Cc2ccco2)cn1	-6.69
COc1cccc(OC2CN(C(=O)Cn3nc4ccccc4n3)C2)c1	-5.28
O=C(CN1CCCC1)N1CCCC(c2cc(=O)n3c(n2)CCCCC3)C1 (configuration not stated)	2.75
CN(C(=O)NCc1ccsc1)C1CCN(c2ccccc2)C1=O (configuration not stated)	0.0689
NC(=O)C1CCCN1c1cc(N2CCc3ccccc3C2)ncn1 (configuration not stated)	-5.82
CCOCCCOC(=O)c1ccc2c(c1)[nH]c(=O)n2C	18.6
CCN(CCn1cccn1)Cc1nc(-c2cccs2)oc1C	-9.82
CS(=O)(=O)N1C[C@H]2CC[C@@H]1CN(Cc1ccncc1)C2	-10.9
C[C@@H]1CN(C(=O)CSc2nncn2C)C[C@@]1(O)C1CC1	-4.21
Cc1cccc(CN2CCN(C(=O)c3cc(C4CC4)[nH]n3)CC2)c1	-4.75
NC(=O)c1cccc(CC2CCN(C(=O)CCCN3CCOCC3)C2)c1 (configuration not stated)	-4.93
CC(Cn1ccnc1)NC(=O)N(C)Cc1ccco1 (configuration not stated)	-2.84
Cc1cc(C(=O)NCCN2CCCC(C)C2)nn1C(C)(C)C (configuration not stated)	-22.7
CCc1cccc(-n2nnc(C(=O)O)c2-c2ccncc2)c1	-13.1
Cc1nnc([C@H]2C[C@H]3OCC[C@H]3N(S(=O)(=O)CC(C)C)C2)o1	-1.29
c1ccc2c(Cc3nnc([C@H]4CCN(C5CCCCC5)C4)o3)c[nH]c2c1	-0.596
Cc1cc(C(=O)NCc2ccnc(N3CCN(C)CC3)c2)c(C)s1	-18
CCCc1ccc2oc(C(=O)N3CCC(O)CC3)c(C)c2c1	6.68
CC(C)n1cc(CN(Cc2ccc(F)cc2)CC2CCCO2)cn1 (configuration not stated)	15.6
Cc1nc(C)n(CC2CCCCN2Cc2nnc(C3CC3)o2)n1 (configuration not stated)	0.151
CN(Cc1ccco1)Cc1ccccc1CNC(=O)c1csnn1	-1.62

SMILES	cytotoxicity at 70.5 h [%]
COc1cc(C)c(S(=O)(=O)CC(=O)N(C)C2CC2)cc1OC	15.2
CN(C)C(=O)c1sc2ncccc2c1C1CNCCO1 (configuration not stated)	-6.3
O=C(Cn1cc(I)cn1)NCC1CCC1	-20.2
CCC(=O)N1CCN(c2ncnc3cc4c(cc23)OCCO4)CC1	-4.42
Cn1cc(S(=O)(=O)N2CCCC2CC(=O)c2cccs2)cn1 (configuration not stated)	-9.81
CC(C)CCCNC(=O)Nc1ccc(C(N)=O)c(Cl)c1	-4.82
COC(=O)CNC(=O)N1CCN(c2nc3ccccc3n2C)CC1	26.4
O=C(c1cccnc1N1CCCC1)N1CCOC(c2ccccc2)C1 (configuration not stated)	-2.27
O=c1cc(CN2CC[C@H]3CC[C@@H](C2)N3)c2cccc3c2n1CCC3	-14.4
CN(C)CC1CSCCCN1C(=O)c1ccsc1 (configuration not stated)	-6.74
CNc1ncc2c(n1)CN(CCc1ccccc1)C2=O	-12.7
CCOCC(=O)N1CC[C@H]2[C@@H]1CCC(=O)N2Cc1csc(C)n1	-10.5
O=C1[C@H]2CC[C@H](CN(c3ncnc4ccsc34)C2)N1CC1CC1	-11
Cc1ccc(O)c(C(=O)NCCS(=O)(=O)Cc2ccccc2)c1	-5.32
Cc1nc(N2CCCC2)nc2c1CCN(C(=O)C(C)C)CC2	-15.8
Cc1ccc(C(=O)NS(=O)(=O)Cc2ccon2)c(C)c1	-4.2
O=C(NCC1(Sc2ccccc2)CC1)c1c[nH]nn1	-0.96
O=C(CCN1CCCC(CC2CC2)(C(=O)O)C1)NC1CCCC1 (configuration not stated)	-9.72
NS(=O)(=O)N1CCc2ccc(NC(=O)CC(F)(F)F)cc21	-1.59
Cc1nc(C)n(CC2CCCN2Cc2cn3ccccc3n2)n1 (configuration not stated)	-14.7
CN(Cc1cnn(C)c1)C(=O)NC1CCS(=O)(=O)C1 (configuration not stated)	-6.09
O=C1O[C@@H]2CN(Cc3ccccn3)C[C@@H]2N1CCCc1ccc(F)cc1	6.23
O=S(=O)(C1CC1)N1CC[C@@H]2[C@@H]1CCN2Cc1cccs1	-6.17

SMILES	cytotoxicity at 70.5 h [%]
COCC1c2nnn(CC3CC3)c2CCN1C(=O)CS(C)(=O)=O (configuration not stated)	-12.6
COc1ccccc1C(C)(C)NC(=O)Nc1ccc(F)c(C(N)=O)c1	-4.97
N#CCCN(C(=O)CN1CCCC1c1ccccc1Cl)c1ccccc1 (configuration not stated)	-11.7
COc1ccccc1CNC(=O)N1CCCC(NS(C)(=O)=O)C1 (configuration not stated)	15.3
N#CCC(=O)NCc1nnc2n1CCN(Cc1ccco1)C2	-13
Cc1cnc(C(=O)N2CC[C@H]3[C@@H]2CCC(=O)N3c2cccnc2)cn1	-14.6
CC(C)Cc1noc(CN(C)C[C@]2(O)CCCN3CCCC[C@@H]32)n1	-12.8
Cc1ncsc1C(=O)NCc1ccc(-c2n[nH]cc2C(=O)N(C)C)cc1	-1.47
Cn1ncc(NC(=O)c2noc3c2CCCC3)c1C(=O)N1CCCCC1	-6.23
C1CCC(NCC2(N3CCOCC3)CCSC2)C1 (configuration not stated)	14.2
CCC(O)CN1CCN(C(=O)Cc2nc(-c3ccco3)oc2C)CC1 (configuration not stated)	-2.09
c1nc(CN2CCC3(CC2)COCCN3CC2CC2)c[nH]1	-18.8
CCc1cc(N[C@H]2CC[C@H](O)CC2)n2nc(C)c(C)c2n1	-0.423
CCC(CC)C(=O)N1CCN(Cc2nc3ccccc3c(=O)[nH]2)CC1	-14.5
COc1ccc(S(=O)(=O)NCC(O)c2sccc2C)cc1C (configuration not stated)	-3.59
Cc1cc(-c2ccccc2C(=O)O)nc(C2CCCN(C(C)C)C2)n1 (configuration not stated)	-3.8
CCC(NC(=O)Cn1ccc(=O)n(C)c1=O)c1ccc(OC)cc1 (configuration not stated)	-9.09
CN1CCC/C1=N\S(=O)(=O)c1ccc(NC(=O)CCc2cccs2)cc1	-1.04
COC(C)(C)C(=O)N1Cc2cnc(C(C)(C)C)nc2C1	-13.3
Cc1nn(C)c(=O)c2nn(-c3ccc(F)cc3)c(C)c12	-8.42
